For one assay, the target named is human TRPA1 (Homo sapiens (Human), UniProt O75762). As to the kind of experiment: FLIPR assay of inhibitory activity on human TRPA1 (calcium ion flux fluorescence). The format is cell-based. Particulars: HEK293 cells stably expressing human TRPA1. The gist of the method: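 Tetracycline-induced (0.1 μg/ml) HEK293 cells stably expressing human TRPA1, loaded with 5 μM Fluo-4 AM for 1 h at 37° C. Compounds added in 1:5 dilutions from 30 μM (9 points, duplicate), then 3 mM CaCl2 after 10 min; fluorescence peak at 538 nm gave IC50.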

Another assay concerns the target human TRPC6 (Homo sapiens (Human), UniProt Q9Y210). Kind of assay: Inhibitory activity on human TRPC6 by conventional patch clamp assay. The format is cell-based. The following applies: HEK293 human TRPC6, read-out: TRPC6 Inhibition rate (5 μM). As for the experimental part:
3. Inhibitory Activity on Human TRPC6 by Conventional Patch Clamp Assay
In order to test the selectivity of the compounds in TRPA1 inhibition, a conventional patch clamp method was used to further measure the inhibitory activity of compounds on TRPC6. The principle and procedures of the conventional patch clamp assay could be found in the literature report of Ambrus et al [Ambrus et al. J Cell and Mol Med 2015, 19 (12):2771-9].
Evaluation of TRPC6 inhibitory activity of compounds was conducted using the HEK293 recombinant cell strain (Creative Biogene, NY) stably expressing human TRPC6. Cells were cultured in a DMEM/F12 (3:1, Thermo Fisher Scientific) medium (containing 5% calf serum, 2 mM glutamine and 20 mM HEPES) in an incubator at 37° C. and air humidity containing 5% CO2.
During the experiment, the adherent cells were placed in a recording room under the inverted microscope. All experiments were performed at room temperature. Each cell itself was used as a control thereof.
Test compounds at a final concentration were all prepared on the testing day and then dissolved in the extracellular fluid. The extracellular fluid was (mM): NaCl, 137; KCl, 4; CaCl2, 1.8; MgCl2, 1; HEPES, 10; glucose 10; pH 7.4 (NaOH titration). Low-Ca extracellular fluid was (mM): NaCl, 138.3; KCl, 4; CaCl2, 0.5; MgCl2, 1; HEPES, 10; glucose 10; pH 7.4 (NaOH titration). […]

Sequence of human TRPA1 (O75762 whole entry): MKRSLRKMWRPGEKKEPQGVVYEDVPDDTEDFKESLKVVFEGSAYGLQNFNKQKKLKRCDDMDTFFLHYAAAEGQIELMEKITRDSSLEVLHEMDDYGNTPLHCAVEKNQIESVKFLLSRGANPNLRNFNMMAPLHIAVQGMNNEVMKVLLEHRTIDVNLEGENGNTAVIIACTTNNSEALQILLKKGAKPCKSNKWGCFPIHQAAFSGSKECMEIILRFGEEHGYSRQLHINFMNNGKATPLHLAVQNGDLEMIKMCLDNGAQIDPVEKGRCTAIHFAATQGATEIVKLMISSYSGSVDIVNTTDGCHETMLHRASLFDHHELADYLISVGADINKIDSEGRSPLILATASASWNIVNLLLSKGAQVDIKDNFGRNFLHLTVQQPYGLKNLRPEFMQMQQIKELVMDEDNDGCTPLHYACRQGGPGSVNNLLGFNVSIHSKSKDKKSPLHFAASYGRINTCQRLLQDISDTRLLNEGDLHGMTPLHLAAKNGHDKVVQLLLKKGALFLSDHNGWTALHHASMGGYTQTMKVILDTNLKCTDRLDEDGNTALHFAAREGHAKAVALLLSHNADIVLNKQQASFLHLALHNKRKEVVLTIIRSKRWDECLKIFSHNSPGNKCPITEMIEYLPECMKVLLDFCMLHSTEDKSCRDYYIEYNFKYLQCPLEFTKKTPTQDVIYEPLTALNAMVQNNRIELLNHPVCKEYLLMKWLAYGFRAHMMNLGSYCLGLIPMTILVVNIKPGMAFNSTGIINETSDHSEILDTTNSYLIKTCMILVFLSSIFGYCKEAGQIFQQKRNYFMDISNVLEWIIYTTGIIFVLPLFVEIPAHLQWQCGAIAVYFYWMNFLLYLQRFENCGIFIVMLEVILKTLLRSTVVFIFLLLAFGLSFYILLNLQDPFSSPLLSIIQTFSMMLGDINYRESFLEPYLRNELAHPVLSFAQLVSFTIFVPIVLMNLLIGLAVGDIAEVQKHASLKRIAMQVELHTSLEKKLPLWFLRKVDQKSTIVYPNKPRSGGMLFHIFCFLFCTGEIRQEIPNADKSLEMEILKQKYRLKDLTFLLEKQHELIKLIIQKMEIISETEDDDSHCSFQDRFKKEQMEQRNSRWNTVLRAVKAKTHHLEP
Sequence of human TRPC6 (Q9Y210 whole entry): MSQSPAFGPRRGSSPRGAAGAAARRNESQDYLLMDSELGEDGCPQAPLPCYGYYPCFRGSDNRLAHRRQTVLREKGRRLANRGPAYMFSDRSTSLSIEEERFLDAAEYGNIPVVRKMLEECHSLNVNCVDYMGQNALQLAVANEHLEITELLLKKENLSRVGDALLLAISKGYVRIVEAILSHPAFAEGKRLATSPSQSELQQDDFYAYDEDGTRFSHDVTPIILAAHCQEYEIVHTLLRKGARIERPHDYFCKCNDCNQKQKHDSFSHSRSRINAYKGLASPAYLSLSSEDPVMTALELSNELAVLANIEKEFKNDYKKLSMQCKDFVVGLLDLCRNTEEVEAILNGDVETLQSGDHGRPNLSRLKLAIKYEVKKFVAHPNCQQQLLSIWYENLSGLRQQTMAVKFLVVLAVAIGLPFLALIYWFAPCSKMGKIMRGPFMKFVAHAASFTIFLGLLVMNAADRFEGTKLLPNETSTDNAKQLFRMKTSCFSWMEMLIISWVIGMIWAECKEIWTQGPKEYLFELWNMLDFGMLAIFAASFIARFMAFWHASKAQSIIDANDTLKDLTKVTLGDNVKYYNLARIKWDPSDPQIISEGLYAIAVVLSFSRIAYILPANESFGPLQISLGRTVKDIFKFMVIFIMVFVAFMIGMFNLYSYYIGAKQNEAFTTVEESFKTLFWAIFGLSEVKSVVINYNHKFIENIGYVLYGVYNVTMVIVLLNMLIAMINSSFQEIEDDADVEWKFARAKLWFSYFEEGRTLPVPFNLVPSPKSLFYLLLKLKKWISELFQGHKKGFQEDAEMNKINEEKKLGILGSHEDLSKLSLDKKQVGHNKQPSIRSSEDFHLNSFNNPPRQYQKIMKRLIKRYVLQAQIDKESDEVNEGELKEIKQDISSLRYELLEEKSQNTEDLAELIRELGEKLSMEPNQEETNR

Turning to `CC(C)(C)C1CCN(C(=O)C2(Nc3ccc(C#N)cc3)CCCC2)CC1` [Compound 31, 4-((1-(4-(tert-butyl)piperidine-1-carbonyl)cyclopentyl)amino)benzonitrile], the IC50 on human TRPA1 was determined as 87 nM. Moreover, on human TRPC6, the inhibition at 5 µM was 26%.
On the same counts, the results for `N#Cc1ccc(NC2(C(=O)N3CCN(c4ccc(C(F)(F)F)cc4)CC3)CCCC2)cc1` [Compound 1, 4-((1-(4-(4-(trifluoromethyl)phenyl)piperazine-1-carbonyl)cyclopentyl)amino)benzonitrile] are 40 nM and -60%.

The term IC50 denotes the point on the concentration scale where inhibition reaches its midpoint. What is called inhibition is the relative decrease from the control value, in per cent.

For the origin of these results see US12391660B2, “Heteroaromatic acetamide derivative, and preparation and use thereof” (Hangzhou Westan Pharmaceutical Technology Co., Ltd, priority 2019, dated 2025).
